Ki data for 20 compounds are collected here from patent US8952157B2, “Apoptosis-inducing agents for the treatment of cancer and immune and autoimmune diseases” (AbbVie Inc., priority 2008, dated 2015).

Each structure is given as a SMILES string.

GST-Bcl-2, sequence (P10415 whole entry): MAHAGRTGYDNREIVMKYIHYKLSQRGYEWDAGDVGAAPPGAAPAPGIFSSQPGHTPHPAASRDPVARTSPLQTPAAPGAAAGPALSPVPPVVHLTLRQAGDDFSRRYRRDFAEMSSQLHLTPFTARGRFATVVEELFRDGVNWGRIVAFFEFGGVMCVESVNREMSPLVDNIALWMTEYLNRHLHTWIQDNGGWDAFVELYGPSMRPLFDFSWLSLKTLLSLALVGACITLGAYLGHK

This experiment has as its target GST-Bcl-2 (Homo sapiens (Human), UniProt P10415). The experiment is described as follows: Time Resolved-Fluorescence Resonance Energy Transfer (TR-FRET) Bcl-2 binding assay. Conditions: GST-Bcl-2 1 nM, F-Bak peptide probe 100 nM, Tb-anti-GST antibody 1 nM; Ki by Wang's equation. The gist of the method: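 Ki values derived from TR-FRET displacement of F-Bak peptide from GST-Bcl-2, detected with Tb-labelled anti-GST antibody (ex 340, em 520/495 nm). Compound dilution series started at 50 μM (2× starting concentration); room-temperature incubation 3 hours.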
As for `CN1CCC(CNc2ccc(S(=O)(=O)NC(=O)c3ccc(N4CCN(CC5=C(c6ccc(Cl)cc6)CC(C)(C)CC5)CC4)cc3Oc3cccc(Cl)c3)cc2[N+](=O)[O-])CC1` [Example 155, 2-(3-chlorophenoxy)-4-(4-{[2-(4-chlorophenyl)-4,4-dimethylcyclohex-1-en-1-yl]methyl}piperazin-1-yl)-N-[(4-{[(1-methylpiperidin-4-yl)methyl]amino}-3-nitrophenyl)sulfonyl]benzamide], affinity was put at a Ki of 0.062 nM.

For `CN1CCC(Nc2ccc(S(=O)(=O)NC(=O)c3ccc(N4CCN(CC5=C(c6ccc(Cl)cc6)CC(C)(C)CC5)CC4)cc3Oc3ccc4[nH]ccc4c3F)cc2[N+](=O)[O-])CC1` [Example 157, 4-(4-{[2-(4-chlorophenyl)-4,4-dimethylcyclohex-1-en-1-yl]methyl}piperazin-1-yl)-2-[(4-fluoro-1H-indol-5-yl)oxy]-N-({4-[(1-methylpiperidin-4-yl)amino]-3-nitrophenyl}sulfonyl)benzamide], the Ki is 0.72 nM.

The compound `COCOc1cccc(Oc2cc(N3CCN(CC4=C(c5ccc(Cl)cc5)CC(C)(C)CC4)CC3)ccc2C(=O)NS(=O)(=O)c2ccc(NC3CCN(C)CC3)c([N+](=O)[O-])c2)c1C` [Example 158, 4-(4-{[2-(4-chlorophenyl)-4,4-dimethylcyclohex-1-en-1-yl]methyl}piperazin-1-yl)-2-[3-(methoxymethoxy)-2-methylphenoxy]-N-({4-[(1-methylpiperidin-4-yl)amino]-3-nitrophenyl}sulfonyl)benzamide] returned a Ki of 0.619 nM.

`Cc1c(O)cccc1Oc1cc(N2CCN(CC3=C(c4ccc(Cl)cc4)CC(C)(C)CC3)CC2)ccc1C(=O)NS(=O)(=O)c1ccc(NC2CCN(C)CC2)c([N+](=O)[O-])c1` [Example 159] displayed a Ki of 0.526 nM.

`CN1CCC(Nc2ccc(S(=O)(=O)NC(=O)c3ccc(N4CCN(CC5=C(c6ccc(Cl)cc6)CC(C)(C)OC5)CC4)cc3Oc3cccc(Br)c3)cc2[N+](=O)[O-])CC1` [Example 160, 2-(3-bromophenoxy)-4-(4-{[4-(4-chlorophenyl)-6,6-dimethyl-5,6-dihydro-2H-pyran-3-yl]methyl}piperazin-1-yl)-N-({4-[(1-methylpiperidin-4-yl)amino]-3-nitrophenyl}sulfonyl)benzamide] displayed a Ki of 0.028 nM.

`CN1CCC(Nc2ccc(S(=O)(=O)NC(=O)c3ccc(N4CCN(CC5=C(c6ccc(Cl)cc6)CC(C)(C)OC5)CC4)cc3Oc3cccc(I)c3)cc2[N+](=O)[O-])CC1` [Example 161, 4-(4-{[4-(4-chlorophenyl)-6,6-dimethyl-5,6-dihydro-2H-pyran-3-yl]methyl}piperazin-1-yl)-2-(3-iodophenoxy)-N-({4-[(1-methylpiperidin-4-yl)amino]-3-nitrophenyl}sulfonyl)benzamide] returned a Ki of 0.031 nM.

Compound `CC1(C)CCC(CN2CCN(c3ccc(C(=O)NS(=O)(=O)c4ccc(NC5CCN(CCO)CC5)c([N+](=O)[O-])c4)c(Oc4cccc(Cl)c4)c3)CC2)=C(c2ccc(Cl)cc2)C1` [Example 162, 2-(3-chlorophenoxy)-4-(4-{[2-(4-chlorophenyl)-4,4-dimethylcyclohex-1-en-1-yl]methyl}piperazin-1-yl)-N-[(4-{[1-(2-hydroxyethyl)piperidin-4-yl]amino}-3-nitrophenyl)sulfonyl]benzamide] had a Ki of 0.048 nM.

Compound `CC1(C)CCC(CN2CCN(c3ccc(C(=O)NS(=O)(=O)c4ccc(NC5CCN(CCc6ccccc6)CC5)c([N+](=O)[O-])c4)c(Oc4cccc(Cl)c4)c3)CC2)=C(c2ccc(Cl)cc2)C1` [Example 163, 2-(3-chlorophenoxy)-4-(4-{[2-(4-chlorophenyl)-4,4-dimethylcyclohex-1-en-1-yl]methyl}piperazin-1-yl)-N-[(3-nitro-4-{[1-(2-phenylethyl)piperidin-4-yl]amino}phenyl)sulfonyl]benzamide] returned a Ki of 0.686 nM.

Compound `CN1CCC(Nc2ccc(S(=O)(=O)NC(=O)c3ccc(N4CCN(CC5=C(c6ccc(Cl)cc6)CC(C)(C)CC5)CC4)cc3Oc3ccc(Cl)c(Cl)c3)cc2[N+](=O)[O-])CC1` [Example 164, 4-(4-{[2-(4-chlorophenyl)-4,4-dimethylcyclohex-1-en-1-yl]methyl}piperazin-1-yl)-2-(3,4-dichlorophenoxy)-N-({4-[(1-methylpiperidin-4-yl)amino]-3-nitrophenyl}sulfonyl)benzamide] gave a Ki of 0.056 nM.

`CN1CCC(Nc2ccc(S(=O)(=O)NC(=O)c3ccc(N4CCN(CC5=C(c6ccc(Cl)cc6)CC(C)(C)CC5)CC4)cc3Oc3cc(F)cc(F)c3Cl)cc2[N+](=O)[O-])CC1` [Example 165, 2-(2-chloro-3,5-difluorophenoxy)-4-(4-{[2-(4-chlorophenyl)-4,4-dimethylcyclohex-1-en-1-yl]methyl}piperazin-1-yl)-N-({4-[(1-methylpiperidin-4-yl)amino]-3-nitrophenyl}sulfonyl)benzamide] displayed a Ki of 0.12 nM.

`COc1cccc(Oc2cc(N3CCN(CC4=C(c5ccc(Cl)cc5)CC(C)(C)CC4)CC3)ccc2C(=O)NS(=O)(=O)c2ccc(NC3CCN(C)CC3)c([N+](=O)[O-])c2)c1` [Example 166, 4-(4-{[2-(4-chlorophenyl)-4,4-dimethylcyclohex-1-en-1-yl]methyl}piperazin-1-yl)-2-(3-methoxyphenoxy)-N-({4-[(1-methylpiperidin-4-yl)amino]-3-nitrophenyl}sulfonyl)benzamide] registered a Ki of 0.082 nM.

Compound `CN1CCC(Nc2ccc(S(=O)(=O)NC(=O)c3ccc(N4CCN(CC5=C(c6ccc(Cl)cc6)CC(C)(C)CC5)CC4)cc3Oc3cccc(CO)c3)cc2[N+](=O)[O-])CC1` [Example 167, 4-(4-{[2-(4-chlorophenyl)-4,4-dimethylcyclohex-1-en-1-yl]methyl}piperazin-1-yl)-2-[3-(hydroxymethyl)phenoxy]-N-({4-[(1-methylpiperidin-4-yl)amino]-3-nitrophenyl}sulfonyl)benzamide] gave a Ki of 1.34 nM.

For `CN1CCC(Nc2ccc(S(=O)(=O)NC(=O)c3ccc(N4CCN(CC5=C(c6ccc(Cl)cc6)CC(C)(C)CC5)CC4)cc3Oc3cccc(O)c3Cl)cc2[N+](=O)[O-])CC1` [Example 171, 2-(2-chloro-3-hydroxyphenoxy)-4-(4-{[2-(4-chlorophenyl)-4,4-dimethylcyclohex-1-en-1-yl]methyl}piperazin-1-yl)-N-({4-[(1-methylpiperidin-4-yl)amino]-3-nitrophenyl}sulfonyl)benzamide], affinity was put at a Ki of 0.066 nM.

Turning to `CC1(C)CCC(CN2CCN(c3ccc(C(=O)NS(=O)(=O)c4ccc(NC5CCN(CCCc6ccccc6)CC5)c([N+](=O)[O-])c4)c(Oc4cccc(Cl)c4)c3)CC2)=C(c2ccc(Cl)cc2)C1` [Example 172, 2-(3-chlorophenoxy)-4-(4-{[2-(4-chlorophenyl)-4,4-dimethylcyclohex-1-en-1-yl]methyl}piperazin-1-yl)-N-[(3-nitro-4-{[1-(3-phenylpropyl)piperidin-4-yl]amino}phenyl)sulfonyl]benzamide], the Ki came to 0.549 nM.

Compound `COCCN1CCC(Nc2ccc(S(=O)(=O)NC(=O)c3ccc(N4CCN(CC5=C(c6ccc(Cl)cc6)CC(C)(C)CC5)CC4)cc3Oc3cccc(Cl)c3)cc2[N+](=O)[O-])CC1` [Example 173, 2-(3-chlorophenoxy)-4-(4-{[2-(4-chlorophenyl)-4,4-dimethylcyclohex-1-en-1-yl]methyl}piperazin-1-yl)-N-[(4-{[1-(2-methoxyethyl)piperidin-4-yl]amino}-3-nitrophenyl)sulfonyl]benzamide] registered a Ki of 0.019 nM.

As for `CCN1CCC(Nc2ccc(S(=O)(=O)NC(=O)c3ccc(N4CCN(CC5=C(c6ccc(Cl)cc6)CC(C)(C)CC5)CC4)cc3Oc3cccc(Cl)c3)cc2[N+](=O)[O-])CC1` [Example 174, 2-(3-chlorophenoxy)-4-(4-{[2-(4-chlorophenyl)-4,4-dimethylcyclohex-1-en-1-yl]methyl}piperazin-1-yl)-N-({4-[(1-ethylpiperidin-4-yl)amino]-3-nitrophenyl}sulfonyl)benzamide], the Ki is 0.037 nM.

`CC(C)N1CCC(Nc2ccc(S(=O)(=O)NC(=O)c3ccc(N4CCN(CC5=C(c6ccc(Cl)cc6)CC(C)(C)CC5)CC4)cc3Oc3cccc(Cl)c3)cc2[N+](=O)[O-])CC1` [Example 175, 2-(3-chlorophenoxy)-4-(4-{[2-(4-chlorophenyl)-4,4-dimethylcyclohex-1-en-1-yl]methyl}piperazin-1-yl)-N-({4-[(1-isopropylpiperidin-4-yl)amino]-3-nitrophenyl}sulfonyl)benzamide] had a Ki of 0.046 nM.

Consider `CN1CCC(Nc2ccc(S(=O)(=O)NC(=O)c3ccc(N4CCN(CC5=C(c6ccc(Cl)cc6)CC(C)(C)CC5)CC4)cc3Oc3cccc(O)c3)cc2[N+](=O)[O-])CC1` [Example 176, 4-(4-{[2-(4-chlorophenyl)-4,4-dimethylcyclohex-1-en-1-yl]methyl}piperazin-1-yl)-2-(3-hydroxyphenoxy)-N-({4-[(1-methylpiperidin-4-yl)amino]-3-nitrophenyl}sulfonyl)benzamide], for which the Ki is 0.24 nM.

`CN1CCC(Nc2ccc(S(=O)(=O)NC(=O)c3ccc(N4CCN(CC5=C(c6ccc(Cl)cc6)CC(C)(C)CC5)CC4)cc3Oc3cccc(F)c3Cl)cc2[N+](=O)[O-])CC1` [Example 177, 2-(2-chloro-3-fluorophenoxy)-4-(4-{[2-(4-chlorophenyl)-4,4-dimethylcyclohex-1-en-1-yl]methyl}piperazin-1-yl)-N-({4-[(1-methylpiperidin-4-yl)amino]-3-nitrophenyl}sulfonyl)benzamide] showed a Ki of 0.037 nM.

The compound `CC1(C)CCC(CN2CCN(c3ccc(C(=O)NS(=O)(=O)c4ccc(NC5CCN(C6CCOCC6)CC5)c([N+](=O)[O-])c4)c(Oc4cccc(F)c4Cl)c3)CC2)=C(c2ccc(Cl)cc2)C1` [Example 178, 2-(2-chloro-3-fluorophenoxy)-4-(4-{[2-(4-chlorophenyl)-4,4-dimethylcyclohex-1-en-1-yl]methyl}piperazin-1-yl)-N-({3-nitro-4-[(1-tetrahydro-2H-pyran-4-ylpiperidin-4-yl)amino]phenyl}sulfonyl)benzamide] gave a Ki of 0.175 nM.
